What was measured:
5HT1 BR = molecular target: T1, 5HT1 BR (Mus musculus, UniProt P28334); assay: Wound closure with topical 5HT1 BR agonist, with or without 5HT1 BR antagonist; format: in vivo, mice; settings: for size of the wound: 6 days post injury, control 15.09±2.3
T1 construct: from tissue; host or cells: live mice, skin wound (in vivo)
Method: Mice were treated with another 5HT1 BR agonist (CP 94253) directly on the wound (topic administration) at a concentration of 0.5 μmol, 12 h after a wound injury.
No pretreatment was performed on this set of experiments and the drug was administered once a day for the totality of the duration of the wound closure. Controls group received PBS topically only, once a day for the total duration of the treatment.

[1] = system: hair and hair follicle of mice; assay: Hair and skin measurements after treatment without shaving; format: in vivo; settings: no shaving; for hair size: per os fluoxetine 18 mg/kg 6 weeks, vortioxetine 20 mg/kg 12 days; for hair follicle length / skin thickness: per os
Method: (§1) All procedures in this study were approved by the Animal Care and Use committee at the Institut Pasteur (CETEA 2016-0007). Unless specified, 6 weeks old male mice C57Bl/6Rj were used in this study and housed on a 12:12 light/dark cycle in a pathogen free facility with controlled temperature and humidity. Food and drink were given ad libitum. Fluoxetine was dissolved in 0.9% NaCl and delivered either by intra peritoneal injections or per os at 18 mg/Kg. Control group received daily injections of 0.9% NaCl. For vortioxetine mice also received the product either dissolved in 96% Ethanol and then diluted 1/200 in water ad libitum at 20 mg/kg or dissolved in 96% Ethanol and then diluted 1/200 in 0.9% NaCl, final concentration 20 mg/kg body weight corrected. For topical applications vortioxetine was dissolved in 0.9% Nacl and directly applied in the wound the 3 first days and then on top on the wound the following days, every day.
To study the possible effect of fluoxetine and vortioxetine on hair growth, fluoxetine (at 18 mg/kg) or vortioxetine (at 20 mg/kg) was provided per os to mice for 6 weeks and 12 days, respectively. […] However, when the hairs were challenged with shaving or depilation, a faster growth of hairs was observed

[2] = system: 8 mm biopsy wound of the skin in C57Bl/6 mice; assay: Histological analysis of the wound (H&E, re-epithelization, Ki67 immunostaining); format: in vivo; settings: for cell infiltration in the dermis vs placebo / number of Ki67+ cells (proliferating cells) in the wound vs placebo / open wounded area vs placebo (H&E): 5 days post injury; for number of cycling cells vs placebo: 14 days post injury; for number of vessels: at the time of the biopsy (T0), H&E, per os treatment, placebo 4.8±1.3; for length of the epithelial tongues vs placebo: day 5 after injury; for distances between the tips of the epithelial tongues vs placebo: day 5 after wounding
Method: Width of the wound and distance of the traversed epithelium were measured on H&E.
Percent of re-epithelization was calculated according to the following formula: [distance covered by epithelium]/[distance between wound bed]×100.
The extent of epithelialization and granulation tissue formation was determined on H&E-stained paraffin tissue sections. The length of the epithelial tongue was determined as the distance that the neo-epithelium had migrated from the margin of the wound as defined by the presence of hair follicles in non-wounded skin.
Immunostaining was performed on formol fixed sections. Permeabilized with 0.5% Triton X-100 20 min at room temperature, washed, and blocked with 10% BSA for 30 min. Sections were incubated with primary antibodies overnight at 4° C. and with Alexa-conjugated secondary antibodies 1/250 and Hoechst for 45 minutes. Sections were then analysed using an automated axioscan (Zeiss) or inverted Observer.Z1 Apotome (Zeiss).
To further characterize the wound closure, histological analysis was performed at the time of the biopsy (T0), 5 days post injury and 14 days post injury.

[3] = system: 8 mm biopsy wound of the skin in C57Bl/6 mice; assay: Wound healing after 8 mm skin biopsy, per os treatment, macroscopic wound size; format: in vivo; settings: for wound in average smaller than placebo: between the 4th and the 14th day post-injury; for size of the wound vs placebo in the course of wound closure: until 16 days post injury
Method: as §1
(§2) Mice were anesthetized using Isoflurane, initially in an induction chamber. The anaesthetised mice were transferred to the anaesthetic nose-cone and maintained on a heated block throughout the procedure (typically for about 5 minutes). Analgesic was administered by subcutaneous injection e.g. buprenorphine 1.5 μl of […] solution, diluted in 30 μl sterile water. The area of the biopsy was shaved. Then an area of dorsal skin was rendered sterile by swabbing with Videne surgical scrub followed by sterile water. A 8 mm sterile punch biopsy was used to create an incision through the epidermis/dermis to the muscle fascia. Any bleeding at this step was carefully avoided. The punch biopsy was removed and the skin separated from muscle connective tissues using forceps or blunted scissors. Mice were then removed from the anesthetic nose-cone and housed in sterilised cages containing paper liner and paper bedding. They were kept warm (using a cage placed on a heated mat) until fully recovered from the effects of the anaesthetic.
In order to assess the regenerative potential of the skin, a 8 mm biopsy of the skin was performed in C57Bl/6 mice, which were either treated per os with fluoxetine at 18 mg/kg or with vortioxetine at 20 mg/kg for 6 weeks and 12 days respectively (FIG. 1A) and during the healing process.

[4] = system: hair growth of shaved mice; assay: Hair growth after shaving (clippers) or depilation (wax); format: in vivo; settings: for hair regeneration after shaving: 5 and 10 days after shaving; for hair growth, differences between the groups: 24 days after shaving; for growth of hairs in both protocols (clippers, wax): after shaving or depilation
Method: 2 different protocols were used to remove the hair from the mice. Mice were anesthetized using Isoflurane, initially in an induction chamber. The anaesthetised mice were transferred to the anaesthetic nose-cone and maintained on a heated block throughout the procedure (typically for about 5 minutes). In protocol 1, shaving was performed by cutting the hair: the mice were gently restrained manually and half of their back was shaved with portable electric hair clippers. In protocol 2, some hair was firstly removed with forceps and wax was used to unstack the hair. The wax was applied twice for maximum efficiency.
The skin color of the mouse skin was measured three times in 5 different locations of the shaved skin randomly and averaged within a 16×16 mm2 field, using ImageJ. The luminance measured reflects the relative darkness ranging from white (0) to black (1 0 0).
In order to study the influence of fluoxetine or vortioxetine on hair growth after a stress 2 different protocols were used on the same mouse. The half right part of the mouse back was shaved by cutting the hair with hairs clippers, and, in parallel, the hairs were removed using wax to unstack the hairs on the left part of the back (FIG. 4G). […] This was still true 10 days after shaving with longer hairs in the treated animals compared with placebo (FIG. 4J,M,N). […] These observations are in favor of a faster growth and faster regeneration but not bigger or longer hairs.

hair growth in patients = settings: about 100 patients, cited from earlier work
[5] = system: 8 mm biopsy wound of the skin in C57Bl/6 mice; assay: Wound healing after 8 mm skin biopsy, topical application without pre-treatment; format: in vivo
Method: as §1, §2
To further confirm the data, the same protocol was performed on C57Bl/6 mice wounded with 8 mm biopsy, but this time the mice were not pre-treated and received topical (300 μl) applications of vortioxetine at a concentration of 20 mg/ml diluted in 96% ethanol. The placebo received the same amount of 96% ethanol. […] Six days post injury, the size of the wound was smaller in the animals topically treated with vortioxetine (FIG. 1L). Eight days post injury, the size of the wound was 10 times lower than the placebo (FIG. 1L).

[6] = first 24 hours, per os fluoxetine 18 mg/kg 6 weeks or vortioxetine 20 mg/kg 12 days pre-treatment and during healing
[7] = six days post injury, per os, placebo 15.67
[8] = sixteen days post injury, per os
[9] = sixteen days post injury, per os, placebo 0.5

T1 sequence (P28334 whole entry): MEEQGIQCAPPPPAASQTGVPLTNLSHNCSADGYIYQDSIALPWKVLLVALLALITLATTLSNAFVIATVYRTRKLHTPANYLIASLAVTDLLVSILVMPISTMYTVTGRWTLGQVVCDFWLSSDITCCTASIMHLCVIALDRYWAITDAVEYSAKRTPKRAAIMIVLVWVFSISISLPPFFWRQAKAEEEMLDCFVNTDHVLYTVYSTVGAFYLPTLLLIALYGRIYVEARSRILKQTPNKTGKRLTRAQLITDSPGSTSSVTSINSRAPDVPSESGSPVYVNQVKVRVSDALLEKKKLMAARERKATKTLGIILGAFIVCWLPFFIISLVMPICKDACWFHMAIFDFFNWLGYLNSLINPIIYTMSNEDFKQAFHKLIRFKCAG

In the case of `CCCOc1ccc2[nH]cc(C3=CCNCC3)c2n1` [CP 94253], the “size of the wound” value (5HT1 BR; topical 0.5 μmol once a day from 12 h after injury, no pretreatment) is reported as 7.7±2.5.

In the case of `COc1ccc(NC(=O)c2ccc(-c3ccc(-c4noc(C)n4)cc3C)cc2)cc1N1CCN(C)CC1` [GR127935], the “size of the wound” value (5HT1 BR; antagonist by osmotic pumps at 4 mg/kg concomitant with topical agonist CP 94253) is reported as 10.3±3.1 and the “effect of the antagonist on the positive effects of the agonist” value (5HT1 BR; osmotic pumps at 4 mg/kg, concomitant with CP 94253) is reported as “blocked partially”.

For `CNCCC(Oc1ccc(C(F)(F)F)cc1)c1ccccc1` (stereo not drawn) [fluoxetine], the hair size [1] was “No differences”, the hair follicle length [1] was “No differences” and the skin thickness [1] was “did not change”. For the same molecule, the “cell infiltration in the dermis vs placebo” value [2] was “more cells”, the “number of Ki67+ cells (proliferating cells) in the wound vs placebo” value [2] was “higher” and the “open wounded area vs placebo (H&E)” value [2] was “smaller”. The “number of cycling cells vs placebo” value [2] was “No differences”, the number of vessels [2] was 8.2±2.7 vessels/mm^2 and the “length of the epithelial tongues vs placebo” value [2] was “significantly increased”. The “distances between the tips of the epithelial tongues vs placebo” value [2] was “significantly shorter”, the “wound in average smaller than placebo” value [3] was 27% and the “size of the wound vs placebo” value [3, 6] was “No difference”. For the same molecule, the “size of the wound vs placebo” value ([3]; four days post injury, per os) was “smaller”, the “area of the wound” value [3, 7] was 11.48 mm^2 and the “skin regeneration at the macroscopic level” value [3, 8] was “virtually completely regenerated”. The “area of the wound” value [3, 9] was 0.05 mm^2, the “size of the wound vs placebo” value ([3]; two days post injury, per os) was “smaller” and the “size of the wound vs placebo in the course of wound closure” value ([3]; per os) was “constantly smaller”. For the same molecule, the “hair regeneration after shaving” value [4] was “more advanced, faster regeneration of the hairs”, the “hair growth vs placebo” value ([4]; 5 days after shaving) was “More advanced hair growth” and the “hair growth vs placebo” value ([4]; 10 days after shaving) was “longer hairs”. For the same molecule, the “hair growth, differences between the groups” value [4] was “no differences” and the “growth of hairs in both protocols (clippers, wax)” value [4] was “faster growth”.

For `CCOC(=O)c1ccnc(C(=O)OCC)c1` [stemoxydin], the “new hairs compared to the normal average of 50 to 100 new hairs growing every day” value (hair growth in patients; 90 days) is given as 4% and the average new hairs (hair growth in patients; in 90 days) is given as 1500 new hairs.

For `Cc1ccc(Sc2ccccc2N2CCNCC2)c(C)c1` [vortioxetine, 1-[2-(2,4-Dimethylphenylsulfanyl)phenyl]piperazine], the hair size [1] was “No differences”, the hair follicle length [1] was “No differences” and the skin thickness [1] was “did not change”. The “cell infiltration in the dermis vs placebo” value [2] was “more cells”, the “number of Ki67+ cells (proliferating cells) in the wound vs placebo” value [2] was “higher” and the “open wounded area vs placebo (H&E)” value [2] was “smaller”. The “number of cycling cells vs placebo” value [2] was “No differences”, the number of vessels [2] was 8.7±3.5 vessels/mm^2 and the “length of the epithelial tongues vs placebo” value [2] was “significantly increased”. For the same molecule, the “distances between the tips of the epithelial tongues vs placebo” value [2] was “significantly shorter”, the “wound in average smaller than placebo” value [3] was 35% and the “size of the wound vs placebo” value [3, 6] was “No difference”. For the same molecule, the “size of the wound vs placebo” value ([3]; four days post injury, per os) was “smaller”, the “area of the wound” value [3, 7] was 10.10 mm^2 and the “skin regeneration at the macroscopic level” value [3, 8] was “virtually completely regenerated”. For the same molecule, the “area of the wound” value [3, 9] was 0.05 mm^2, the “size of the wound vs placebo in the course of wound closure” value ([3]; per os) was “constantly smaller” and the “sizes of the wounds vs placebo” value ([5]; T0 to 4 days post injury, topical 300 μl of 20 mg/ml, no pre-treatment) was “No differences”. For the same molecule, the “size of the wound relative to placebo” value ([5]; eight days post injury, topical) was 10 times lower than the placebo, the “size of the wound vs placebo” value ([5]; six days post injury, topical) was “smaller” and the wound closure ([5]; sixteen days post injury, topical, placebo 0.20 mm^2) was “virtually completely closed”. For the same molecule, the “hair regeneration after shaving” value [4] was “more advanced, faster regeneration of the hairs”, the “hair growth vs placebo” value ([4]; 5 days after shaving) was “More advanced hair growth” and the “hair growth vs placebo” value ([4]; 10 days after shaving) was “longer hairs”. The “hair growth, differences between the groups” value [4] was “no differences” and the “growth of hairs in both protocols (clippers, wax)” value [4] was “faster growth”.
